Activity calls are given as the source filed them. The calls are words filed in the database; no cut-off is given here.

The text below walks through data of ChEMBL document CHEMBL1158790, “Pseudopyronines A and B, alpha-pyrones produced by a marine Pseudomonas sp. F92S91, and evidence for the conversion of 4-hydroxy-alpha-pyrone to 3-furanone” (J Nat Prod, 2005).

The assay relates to Saccharomyces cerevisiae. As to the kind of experiment: Antifungal activity against Saccharomyces cerevisiae. Type of assay: functional, organism-based.

For the molecule `CCCCCCCC1=CC(=O)C(O)(CCCCCC)O1` (stereo unspecified), the result was inactive.
